Experimental data taken from ChEMBL document CHEMBL3352120, “Enantioselective induction of SIRT1 gene by syringaresinol from Panax ginseng berry and Acanthopanax senticosus Harms stem” (Bioorg Med Chem Lett, 2015).
The source made the active and inactive calls. No cut-off for these calls is given here.

Key:
HUVEC [1] = test: Induction of SIRT1 mRNA expression in HUVEC at 5 to 100 uM by quantitative RT-PCR analysis; type: functional, cell-based; conditions: Homo sapiens
HUVEC [2] = test: Induction of SIRT1 mRNA expression in HUVEC at 5 to 100 uM after 24 hrs by luciferase reporter gene assay relative to untreated control; type: functional, cell-based; conditions: Homo sapiens
HUVEC [3] = test: Cytotoxicity against HUVEC assessed as cell viability at 5 to 300 uM after 24 hrs by MTT assay; type: cell-based; conditions: human
Forkhead box protein O3 [4] = target: T1, Forkhead box protein O3 (Homo sapiens, UniProt O43524); test: Induction of FOXO3a binding to SIRT1 in HUVEC at 50 uM after 24 hrs by chromatin immunoprecipitation assay
Forkhead box protein O3 [5] = target: T1, Forkhead box protein O3; test: Binding affinity to His-tagged FOXO3a (unknown origin) by SPR analysis
HUVEC [6] = test: Induction of SIRT1 mRNA expression in HUVEC by quantitative RT-PCR analysis; type: functional, cell-based; conditions: Homo sapiens
HUVEC [7] = test: Induction of SIRT1 mRNA expression in HUVEC after 24 hrs by luciferase reporter gene assay relative to untreated control; type: functional, cell-based; conditions: Homo sapiens

T1 sequence (O43524 whole entry): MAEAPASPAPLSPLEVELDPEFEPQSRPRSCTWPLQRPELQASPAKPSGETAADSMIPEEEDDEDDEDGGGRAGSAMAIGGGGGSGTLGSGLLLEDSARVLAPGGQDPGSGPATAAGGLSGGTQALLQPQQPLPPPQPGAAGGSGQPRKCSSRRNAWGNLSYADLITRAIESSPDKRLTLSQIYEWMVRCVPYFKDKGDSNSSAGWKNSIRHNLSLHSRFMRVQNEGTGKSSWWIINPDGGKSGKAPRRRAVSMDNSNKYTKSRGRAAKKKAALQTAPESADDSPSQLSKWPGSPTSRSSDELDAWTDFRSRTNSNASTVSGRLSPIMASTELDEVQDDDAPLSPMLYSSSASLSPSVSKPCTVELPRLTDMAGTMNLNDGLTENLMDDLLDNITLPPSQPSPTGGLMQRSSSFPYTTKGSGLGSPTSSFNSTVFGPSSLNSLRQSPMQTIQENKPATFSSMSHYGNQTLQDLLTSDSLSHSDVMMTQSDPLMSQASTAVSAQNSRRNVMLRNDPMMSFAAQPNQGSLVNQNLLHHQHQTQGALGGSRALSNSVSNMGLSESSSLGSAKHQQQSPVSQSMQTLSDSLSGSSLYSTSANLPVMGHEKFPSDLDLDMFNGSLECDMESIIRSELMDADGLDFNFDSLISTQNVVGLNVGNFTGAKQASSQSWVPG

Row | SMILES | Activity (HUVEC [1]) | Activity (HUVEC [2]) | Activity (HUVEC [3]) | Activity (Forkhead box protein O3 [4]) | Activity (Forkhead box protein O3 [5]) | Activity (HUVEC [6]) | Activity (HUVEC [7]) | Kd (Forkhead box protein O3 [5]) [µM]
1 | COc1cc([C@@H]2OC[C@@H]3[C@H]2CO[C@H]3c2cc(OC)c(O)c(OC)c2)cc(OC)c1O | inactive | inactive | Non-toxic | inactive | inactive | – | – | –
2 | COc1cc([C@H]2OC[C@H]3[C@@H]2CO[C@@H]3c2cc(OC)c(O)c(OC)c2)cc(OC)c1O [SYRINGARESINOL] | – | – | Non-toxic | Active | – | Dose-dependent effect | Dose-dependent effect | 1730
